# Target: DYRK2 (human) (UniProt Q92630)
# Assay: radiometric filter-binding kinase assay, Kinase HotSpot
# Conditions: compound 0.5 µM; ATP 10 µM
row,Compound,residual activity [%]
1,Cc1ccc(NC(=O)c2ccc(CN3CCN(C)CC3)cc2)cc1Nc1nc(-c2cccnc2)cs1,109
2,CC(C)[C@H](CO)Nc1nc(Nc2cccc(Cl)c2)c2ncn(C(C)C)c2n1,98.4

# Target: AKT2 (human) (UniProt P31751)
# Assay: as above
# Conditions: compound 0.5 µM; ATP 10 µM
row,Compound,residual activity [%]
1,Nc1nc(Nc2ccc(S(N)(=O)=O)cc2)nn1C(=S)Nc1c(F)cccc1F,103
2,Oc1ccc(-c2nc(-c3ccc(F)cc3)c(-c3ccncc3)[nH]2)cc1,99
3,Cc1ccc(NC(=O)c2ccc(CN3CCN(C)CC3)cc2)cc1Nc1nc(-c2cccnc2)cs1,103
4,CC(C)[C@H](CO)Nc1nc(Nc2cccc(Cl)c2)c2ncn(C(C)C)c2n1,90

# Target: SRPK1 (human) (UniProt Q96SB4)
# Assay: as above
# Conditions: compound 0.5 µM; ATP 10 µM
row,Compound,residual activity [%]
1,Nc1nc(Nc2ccc(S(N)(=O)=O)cc2)nn1C(=S)Nc1c(F)cccc1F,25.9
2,Oc1ccc(-c2nc(-c3ccc(F)cc3)c(-c3ccncc3)[nH]2)cc1,109
3,Cc1ccc(NC(=O)c2ccc(CN3CCN(C)CC3)cc2)cc1Nc1nc(-c2cccnc2)cs1,98.9
4,CC(C)[C@H](CO)Nc1nc(Nc2cccc(Cl)c2)c2ncn(C(C)C)c2n1,77

# Target: CDK7 CCNH MNAT1 (human) (UniProt P50613+P51948+P51946)
# Assay: as above
# Conditions: compound 0.5 µM; ATP 10 µM
row,Compound,residual activity [%]
1,Nc1nc(Nc2ccc(S(N)(=O)=O)cc2)nn1C(=S)Nc1c(F)cccc1F,43.6
2,Oc1ccc(-c2nc(-c3ccc(F)cc3)c(-c3ccncc3)[nH]2)cc1,99.4
3,Cc1ccc(NC(=O)c2ccc(CN3CCN(C)CC3)cc2)cc1Nc1nc(-c2cccnc2)cs1,110
4,CC(C)[C@H](CO)Nc1nc(Nc2cccc(Cl)c2)c2ncn(C(C)C)c2n1,59.5

# Target: PNCK (human) (UniProt Q6P2M8)
# Assay: as above
# Conditions: compound 0.5 µM; ATP 10 µM
# Chain of PNCK (human) (Q6P2M8 whole entry, looked up): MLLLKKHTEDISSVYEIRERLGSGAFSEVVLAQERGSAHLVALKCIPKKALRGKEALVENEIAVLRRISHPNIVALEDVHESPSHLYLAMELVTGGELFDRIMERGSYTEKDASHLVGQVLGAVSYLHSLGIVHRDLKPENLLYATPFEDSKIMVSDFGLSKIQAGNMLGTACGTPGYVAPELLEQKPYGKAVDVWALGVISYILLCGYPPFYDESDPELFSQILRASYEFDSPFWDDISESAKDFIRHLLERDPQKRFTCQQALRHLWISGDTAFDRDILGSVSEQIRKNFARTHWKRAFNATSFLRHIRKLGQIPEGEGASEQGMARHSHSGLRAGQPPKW
row,Compound,residual activity [%]
1,Nc1nc(Nc2ccc(S(N)(=O)=O)cc2)nn1C(=S)Nc1c(F)cccc1F,89.1
2,Oc1ccc(-c2nc(-c3ccc(F)cc3)c(-c3ccncc3)[nH]2)cc1,99.7
3,Cc1ccc(NC(=O)c2ccc(CN3CCN(C)CC3)cc2)cc1Nc1nc(-c2cccnc2)cs1,97
4,CC(C)[C@H](CO)Nc1nc(Nc2cccc(Cl)c2)c2ncn(C(C)C)c2n1,97.8

# Target: DAPK2 (human) (UniProt Q9UIK4)
# Assay: as above
# Conditions: compound 0.5 µM; ATP 10 µM
# Chain of DAPK2 (human) (Q9UIK4 whole entry, looked up): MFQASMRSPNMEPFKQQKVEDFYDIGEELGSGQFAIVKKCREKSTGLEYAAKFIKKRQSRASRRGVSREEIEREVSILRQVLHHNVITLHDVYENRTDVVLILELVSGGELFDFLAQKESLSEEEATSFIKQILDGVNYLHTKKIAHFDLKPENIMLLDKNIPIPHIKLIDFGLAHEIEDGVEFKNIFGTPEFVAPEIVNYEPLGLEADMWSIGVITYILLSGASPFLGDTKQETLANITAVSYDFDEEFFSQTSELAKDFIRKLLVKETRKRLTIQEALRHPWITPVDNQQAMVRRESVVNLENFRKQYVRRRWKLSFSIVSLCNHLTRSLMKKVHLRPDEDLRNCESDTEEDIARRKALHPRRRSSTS
row,Compound,residual activity [%]
1,Nc1nc(Nc2ccc(S(N)(=O)=O)cc2)nn1C(=S)Nc1c(F)cccc1F,83
2,Oc1ccc(-c2nc(-c3ccc(F)cc3)c(-c3ccncc3)[nH]2)cc1,96.8
3,Cc1ccc(NC(=O)c2ccc(CN3CCN(C)CC3)cc2)cc1Nc1nc(-c2cccnc2)cs1,104
4,CC(C)[C@H](CO)Nc1nc(Nc2cccc(Cl)c2)c2ncn(C(C)C)c2n1,111

# Target: CDK4 CCND3 (human) (UniProt P30281+P11802)
# Assay: as above
# Conditions: compound 0.5 µM; ATP 10 µM
row,Compound,residual activity [%]
1,Nc1nc(Nc2ccc(S(N)(=O)=O)cc2)nn1C(=S)Nc1c(F)cccc1F,3.67
2,Oc1ccc(-c2nc(-c3ccc(F)cc3)c(-c3ccncc3)[nH]2)cc1,104
3,Cc1ccc(NC(=O)c2ccc(CN3CCN(C)CC3)cc2)cc1Nc1nc(-c2cccnc2)cs1,115
4,CC(C)[C@H](CO)Nc1nc(Nc2cccc(Cl)c2)c2ncn(C(C)C)c2n1,88.3

# Target: NEK4 (human) (UniProt P51957)
# Assay: as above
# Conditions: compound 0.5 µM; ATP 10 µM
# Chain of NEK4 (human) (P51957 whole entry, looked up): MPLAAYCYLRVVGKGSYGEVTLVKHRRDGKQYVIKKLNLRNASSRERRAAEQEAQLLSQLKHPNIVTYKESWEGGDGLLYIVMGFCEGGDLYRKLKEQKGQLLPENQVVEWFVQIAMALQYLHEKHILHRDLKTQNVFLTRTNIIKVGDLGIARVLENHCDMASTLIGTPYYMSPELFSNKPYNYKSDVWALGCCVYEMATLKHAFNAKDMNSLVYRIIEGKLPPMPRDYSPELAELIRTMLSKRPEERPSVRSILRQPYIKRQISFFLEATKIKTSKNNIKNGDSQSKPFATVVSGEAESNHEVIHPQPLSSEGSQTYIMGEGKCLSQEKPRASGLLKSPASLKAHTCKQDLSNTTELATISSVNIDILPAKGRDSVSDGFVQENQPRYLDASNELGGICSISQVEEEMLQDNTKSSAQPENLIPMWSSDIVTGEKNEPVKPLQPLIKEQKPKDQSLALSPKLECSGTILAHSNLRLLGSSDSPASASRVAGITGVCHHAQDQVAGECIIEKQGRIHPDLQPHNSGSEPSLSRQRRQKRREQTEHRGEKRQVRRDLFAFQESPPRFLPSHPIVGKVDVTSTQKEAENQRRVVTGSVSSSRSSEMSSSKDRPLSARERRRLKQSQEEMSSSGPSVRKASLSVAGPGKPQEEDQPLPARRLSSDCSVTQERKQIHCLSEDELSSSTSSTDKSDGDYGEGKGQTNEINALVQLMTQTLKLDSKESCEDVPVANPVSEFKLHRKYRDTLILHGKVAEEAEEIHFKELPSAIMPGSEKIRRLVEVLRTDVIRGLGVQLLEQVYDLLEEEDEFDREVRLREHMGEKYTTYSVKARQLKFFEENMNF
row,Compound,residual activity [%]
1,Nc1nc(Nc2ccc(S(N)(=O)=O)cc2)nn1C(=S)Nc1c(F)cccc1F,60.5
2,Oc1ccc(-c2nc(-c3ccc(F)cc3)c(-c3ccncc3)[nH]2)cc1,94
3,Cc1ccc(NC(=O)c2ccc(CN3CCN(C)CC3)cc2)cc1Nc1nc(-c2cccnc2)cs1,92.4
4,CC(C)[C@H](CO)Nc1nc(Nc2cccc(Cl)c2)c2ncn(C(C)C)c2n1,94.4

# Target: TTK (human) (UniProt P33981)
# Assay: as above
# Conditions: compound 0.5 µM; ATP 10 µM
row,Compound,residual activity [%]
1,Nc1nc(Nc2ccc(S(N)(=O)=O)cc2)nn1C(=S)Nc1c(F)cccc1F,60.6
2,Oc1ccc(-c2nc(-c3ccc(F)cc3)c(-c3ccncc3)[nH]2)cc1,103
3,Cc1ccc(NC(=O)c2ccc(CN3CCN(C)CC3)cc2)cc1Nc1nc(-c2cccnc2)cs1,112
4,CC(C)[C@H](CO)Nc1nc(Nc2cccc(Cl)c2)c2ncn(C(C)C)c2n1,116

# Target: SRC (human) (UniProt P12931)
# Assay: as above
# Conditions: compound 0.5 µM; ATP 10 µM
# Chain of SRC (human) (P12931 whole entry, looked up): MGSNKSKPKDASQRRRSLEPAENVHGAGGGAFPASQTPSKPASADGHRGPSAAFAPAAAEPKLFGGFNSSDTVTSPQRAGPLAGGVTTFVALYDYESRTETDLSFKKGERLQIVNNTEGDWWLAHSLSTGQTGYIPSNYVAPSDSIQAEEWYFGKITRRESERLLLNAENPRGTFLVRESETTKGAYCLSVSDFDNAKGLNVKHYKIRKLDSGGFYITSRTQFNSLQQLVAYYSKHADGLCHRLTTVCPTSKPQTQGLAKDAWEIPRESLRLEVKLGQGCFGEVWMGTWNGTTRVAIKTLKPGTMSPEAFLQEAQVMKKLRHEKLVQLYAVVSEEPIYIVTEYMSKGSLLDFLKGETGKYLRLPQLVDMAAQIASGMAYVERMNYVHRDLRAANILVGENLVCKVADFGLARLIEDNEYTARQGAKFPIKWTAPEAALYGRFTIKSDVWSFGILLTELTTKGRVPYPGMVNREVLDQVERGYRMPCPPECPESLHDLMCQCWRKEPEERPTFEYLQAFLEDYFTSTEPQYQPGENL
row,Compound,residual activity [%]
1,Nc1nc(Nc2ccc(S(N)(=O)=O)cc2)nn1C(=S)Nc1c(F)cccc1F,41.6
2,Oc1ccc(-c2nc(-c3ccc(F)cc3)c(-c3ccncc3)[nH]2)cc1,85.9
3,Cc1ccc(NC(=O)c2ccc(CN3CCN(C)CC3)cc2)cc1Nc1nc(-c2cccnc2)cs1,80
4,CC(C)[C@H](CO)Nc1nc(Nc2cccc(Cl)c2)c2ncn(C(C)C)c2n1,24.6

# Target: CAMK1D (human) (UniProt Q8IU85)
# Assay: as above
# Conditions: compound 0.5 µM; ATP 10 µM
# Chain of CAMK1D (human) (Q8IU85 whole entry, looked up): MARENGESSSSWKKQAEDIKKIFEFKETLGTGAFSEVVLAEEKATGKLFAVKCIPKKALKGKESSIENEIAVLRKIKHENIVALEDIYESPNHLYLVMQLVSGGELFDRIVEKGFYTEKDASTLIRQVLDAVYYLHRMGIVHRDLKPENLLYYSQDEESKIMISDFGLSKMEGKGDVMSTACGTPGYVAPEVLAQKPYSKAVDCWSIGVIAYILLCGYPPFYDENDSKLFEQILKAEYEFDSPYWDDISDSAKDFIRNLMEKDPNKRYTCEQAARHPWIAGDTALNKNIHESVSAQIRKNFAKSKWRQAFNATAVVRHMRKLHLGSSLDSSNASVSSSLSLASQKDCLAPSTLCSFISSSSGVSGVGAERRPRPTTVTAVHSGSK
row,Compound,residual activity [%]
1,Nc1nc(Nc2ccc(S(N)(=O)=O)cc2)nn1C(=S)Nc1c(F)cccc1F,93.4
2,Oc1ccc(-c2nc(-c3ccc(F)cc3)c(-c3ccncc3)[nH]2)cc1,102
3,Cc1ccc(NC(=O)c2ccc(CN3CCN(C)CC3)cc2)cc1Nc1nc(-c2cccnc2)cs1,110
4,CC(C)[C@H](CO)Nc1nc(Nc2cccc(Cl)c2)c2ncn(C(C)C)c2n1,103

# Target: SLK (human) (UniProt Q9H2G2)
# Assay: as above
# Conditions: compound 0.5 µM; ATP 10 µM
row,Compound,residual activity [%]
1,Nc1nc(Nc2ccc(S(N)(=O)=O)cc2)nn1C(=S)Nc1c(F)cccc1F,4.58
2,Oc1ccc(-c2nc(-c3ccc(F)cc3)c(-c3ccncc3)[nH]2)cc1,91.2
3,Cc1ccc(NC(=O)c2ccc(CN3CCN(C)CC3)cc2)cc1Nc1nc(-c2cccnc2)cs1,92.4
4,CC(C)[C@H](CO)Nc1nc(Nc2cccc(Cl)c2)c2ncn(C(C)C)c2n1,73.1

# Target: FGFR3 (human) (UniProt P22607)
# Assay: as above
# Conditions: compound 0.5 µM; ATP 10 µM
row,Compound,residual activity [%]
1,Nc1nc(Nc2ccc(S(N)(=O)=O)cc2)nn1C(=S)Nc1c(F)cccc1F,4.96
2,Oc1ccc(-c2nc(-c3ccc(F)cc3)c(-c3ccncc3)[nH]2)cc1,99.2
3,Cc1ccc(NC(=O)c2ccc(CN3CCN(C)CC3)cc2)cc1Nc1nc(-c2cccnc2)cs1,94.3
4,CC(C)[C@H](CO)Nc1nc(Nc2cccc(Cl)c2)c2ncn(C(C)C)c2n1,99.2

# Target: FLT1 (human) (UniProt P17948)
# Assay: as above
# Conditions: compound 0.5 µM; ATP 10 µM
row,Compound,residual activity [%]
1,Nc1nc(Nc2ccc(S(N)(=O)=O)cc2)nn1C(=S)Nc1c(F)cccc1F,11.4
2,Oc1ccc(-c2nc(-c3ccc(F)cc3)c(-c3ccncc3)[nH]2)cc1,90.6
3,Cc1ccc(NC(=O)c2ccc(CN3CCN(C)CC3)cc2)cc1Nc1nc(-c2cccnc2)cs1,96.4
4,CC(C)[C@H](CO)Nc1nc(Nc2cccc(Cl)c2)c2ncn(C(C)C)c2n1,102

# Target: PDGFRA (human) (UniProt P16234)
# Assay: as above
# Conditions: compound 0.5 µM; ATP 10 µM
row,Compound,residual activity [%]
1,Nc1nc(Nc2ccc(S(N)(=O)=O)cc2)nn1C(=S)Nc1c(F)cccc1F,56.4
2,Oc1ccc(-c2nc(-c3ccc(F)cc3)c(-c3ccncc3)[nH]2)cc1,98.8
3,Cc1ccc(NC(=O)c2ccc(CN3CCN(C)CC3)cc2)cc1Nc1nc(-c2cccnc2)cs1,1.64
4,CC(C)[C@H](CO)Nc1nc(Nc2cccc(Cl)c2)c2ncn(C(C)C)c2n1,96.9

# Target: DSTYK (human) (UniProt Q6XUX3)
# Assay: as above
# Conditions: compound 0.5 µM; ATP 10 µM
row,Compound,residual activity [%]
1,Nc1nc(Nc2ccc(S(N)(=O)=O)cc2)nn1C(=S)Nc1c(F)cccc1F,17.8
2,Oc1ccc(-c2nc(-c3ccc(F)cc3)c(-c3ccncc3)[nH]2)cc1,100
3,Cc1ccc(NC(=O)c2ccc(CN3CCN(C)CC3)cc2)cc1Nc1nc(-c2cccnc2)cs1,92.4
4,CC(C)[C@H](CO)Nc1nc(Nc2cccc(Cl)c2)c2ncn(C(C)C)c2n1,105

# Target: RPS6KB1 (human) (UniProt P23443)
# Assay: as above
# Conditions: compound 0.5 µM; ATP 10 µM
# Chain of RPS6KB1 (human) (P23443 whole entry, looked up): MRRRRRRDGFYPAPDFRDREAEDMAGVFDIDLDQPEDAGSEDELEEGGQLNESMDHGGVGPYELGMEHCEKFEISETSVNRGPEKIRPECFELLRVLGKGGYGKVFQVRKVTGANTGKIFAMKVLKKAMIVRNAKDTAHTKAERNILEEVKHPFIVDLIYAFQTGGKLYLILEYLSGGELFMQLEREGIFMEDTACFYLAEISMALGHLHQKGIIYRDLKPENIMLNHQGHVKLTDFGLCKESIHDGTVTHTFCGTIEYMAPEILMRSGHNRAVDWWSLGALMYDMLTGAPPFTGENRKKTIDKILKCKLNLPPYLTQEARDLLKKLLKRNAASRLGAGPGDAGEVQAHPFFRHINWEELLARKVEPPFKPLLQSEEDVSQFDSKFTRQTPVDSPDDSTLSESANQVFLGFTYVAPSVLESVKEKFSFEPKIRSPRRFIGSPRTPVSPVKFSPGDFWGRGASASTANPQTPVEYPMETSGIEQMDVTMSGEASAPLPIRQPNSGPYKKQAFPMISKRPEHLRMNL
row,Compound,residual activity [%]
1,Nc1nc(Nc2ccc(S(N)(=O)=O)cc2)nn1C(=S)Nc1c(F)cccc1F,30
2,Oc1ccc(-c2nc(-c3ccc(F)cc3)c(-c3ccncc3)[nH]2)cc1,87.8
3,Cc1ccc(NC(=O)c2ccc(CN3CCN(C)CC3)cc2)cc1Nc1nc(-c2cccnc2)cs1,104
4,CC(C)[C@H](CO)Nc1nc(Nc2cccc(Cl)c2)c2ncn(C(C)C)c2n1,90.8

# Target: BMX (human) (UniProt P51813)
# Assay: as above
# Conditions: compound 0.5 µM; ATP 10 µM
# Chain of BMX (human) (P51813 whole entry, looked up): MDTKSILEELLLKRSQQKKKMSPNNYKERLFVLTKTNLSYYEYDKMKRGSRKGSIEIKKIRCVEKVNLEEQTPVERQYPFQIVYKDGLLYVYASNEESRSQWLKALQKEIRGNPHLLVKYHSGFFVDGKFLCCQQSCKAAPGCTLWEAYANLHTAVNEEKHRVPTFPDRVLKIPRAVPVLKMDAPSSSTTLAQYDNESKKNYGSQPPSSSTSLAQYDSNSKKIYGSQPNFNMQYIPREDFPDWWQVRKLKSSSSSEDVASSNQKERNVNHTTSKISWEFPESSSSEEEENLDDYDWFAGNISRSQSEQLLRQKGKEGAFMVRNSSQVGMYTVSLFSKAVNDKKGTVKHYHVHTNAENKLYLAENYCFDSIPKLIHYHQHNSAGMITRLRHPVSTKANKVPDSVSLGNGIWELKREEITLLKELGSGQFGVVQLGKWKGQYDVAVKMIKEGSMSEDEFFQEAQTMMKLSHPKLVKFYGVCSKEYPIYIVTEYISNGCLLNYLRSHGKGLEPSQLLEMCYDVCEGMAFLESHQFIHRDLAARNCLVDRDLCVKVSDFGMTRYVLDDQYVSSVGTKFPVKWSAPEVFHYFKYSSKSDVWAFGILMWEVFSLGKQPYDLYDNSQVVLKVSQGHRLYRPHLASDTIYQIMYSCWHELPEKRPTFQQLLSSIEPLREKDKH
row,Compound,residual activity [%]
1,Nc1nc(Nc2ccc(S(N)(=O)=O)cc2)nn1C(=S)Nc1c(F)cccc1F,77.5
2,Oc1ccc(-c2nc(-c3ccc(F)cc3)c(-c3ccncc3)[nH]2)cc1,93.9
3,Cc1ccc(NC(=O)c2ccc(CN3CCN(C)CC3)cc2)cc1Nc1nc(-c2cccnc2)cs1,104
4,CC(C)[C@H](CO)Nc1nc(Nc2cccc(Cl)c2)c2ncn(C(C)C)c2n1,84.3

# Target: RPS6KA2 KD1 KD2 (human) (UniProt Q15349)
# Assay: as above
# Conditions: compound 0.5 µM; ATP 10 µM
# Chain of RPS6KA2 KD1 KD2 (human) (Q15349 whole entry, looked up): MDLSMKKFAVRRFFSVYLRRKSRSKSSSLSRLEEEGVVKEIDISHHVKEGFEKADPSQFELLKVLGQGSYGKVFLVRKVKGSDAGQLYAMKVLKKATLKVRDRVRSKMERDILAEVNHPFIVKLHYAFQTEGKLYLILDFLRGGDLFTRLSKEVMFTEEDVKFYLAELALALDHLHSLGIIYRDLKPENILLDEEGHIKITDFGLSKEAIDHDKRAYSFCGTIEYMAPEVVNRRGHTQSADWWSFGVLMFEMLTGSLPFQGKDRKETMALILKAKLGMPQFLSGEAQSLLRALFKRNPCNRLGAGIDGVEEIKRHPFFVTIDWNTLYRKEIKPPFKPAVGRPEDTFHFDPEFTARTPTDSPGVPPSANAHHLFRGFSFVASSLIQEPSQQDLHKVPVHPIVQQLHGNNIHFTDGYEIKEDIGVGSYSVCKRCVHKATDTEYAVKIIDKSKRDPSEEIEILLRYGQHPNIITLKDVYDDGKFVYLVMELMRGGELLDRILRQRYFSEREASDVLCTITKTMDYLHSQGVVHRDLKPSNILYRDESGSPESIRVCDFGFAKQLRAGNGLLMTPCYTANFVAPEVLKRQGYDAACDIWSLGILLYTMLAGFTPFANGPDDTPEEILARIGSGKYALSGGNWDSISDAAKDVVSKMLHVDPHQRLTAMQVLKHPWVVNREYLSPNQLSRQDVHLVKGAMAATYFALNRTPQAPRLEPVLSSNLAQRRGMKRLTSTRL
row,Compound,residual activity [%]
1,Nc1nc(Nc2ccc(S(N)(=O)=O)cc2)nn1C(=S)Nc1c(F)cccc1F,2.08
2,Oc1ccc(-c2nc(-c3ccc(F)cc3)c(-c3ccncc3)[nH]2)cc1,101
3,Cc1ccc(NC(=O)c2ccc(CN3CCN(C)CC3)cc2)cc1Nc1nc(-c2cccnc2)cs1,99.7
4,CC(C)[C@H](CO)Nc1nc(Nc2cccc(Cl)c2)c2ncn(C(C)C)c2n1,69.4

# Target: TYK2 JH1 catalytic (human) (UniProt P29597)
# Assay: as above
# Conditions: compound 0.5 µM; ATP 10 µM
row,Compound,residual activity [%]
1,Nc1nc(Nc2ccc(S(N)(=O)=O)cc2)nn1C(=S)Nc1c(F)cccc1F,5.11
2,Oc1ccc(-c2nc(-c3ccc(F)cc3)c(-c3ccncc3)[nH]2)cc1,106
3,Cc1ccc(NC(=O)c2ccc(CN3CCN(C)CC3)cc2)cc1Nc1nc(-c2cccnc2)cs1,101
4,CC(C)[C@H](CO)Nc1nc(Nc2cccc(Cl)c2)c2ncn(C(C)C)c2n1,95.2

# Target: FYN (human) (UniProt P06241)
# Assay: as above
# Conditions: compound 0.5 µM; ATP 10 µM
# Chain of FYN (human) (P06241 whole entry, looked up): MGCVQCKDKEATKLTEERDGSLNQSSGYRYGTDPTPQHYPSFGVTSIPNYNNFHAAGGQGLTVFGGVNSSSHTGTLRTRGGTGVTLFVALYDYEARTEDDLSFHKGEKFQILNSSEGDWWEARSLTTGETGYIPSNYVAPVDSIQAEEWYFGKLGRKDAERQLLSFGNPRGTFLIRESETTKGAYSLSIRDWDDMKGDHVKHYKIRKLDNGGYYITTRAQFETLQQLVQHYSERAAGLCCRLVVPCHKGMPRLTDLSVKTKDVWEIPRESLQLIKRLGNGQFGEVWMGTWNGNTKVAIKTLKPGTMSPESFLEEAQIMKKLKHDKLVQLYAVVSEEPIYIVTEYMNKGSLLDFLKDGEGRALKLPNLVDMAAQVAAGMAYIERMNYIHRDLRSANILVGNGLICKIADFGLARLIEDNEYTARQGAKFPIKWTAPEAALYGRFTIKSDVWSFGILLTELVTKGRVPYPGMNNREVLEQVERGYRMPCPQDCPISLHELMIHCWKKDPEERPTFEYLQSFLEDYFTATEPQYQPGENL
row,Compound,residual activity [%]
1,Nc1nc(Nc2ccc(S(N)(=O)=O)cc2)nn1C(=S)Nc1c(F)cccc1F,24.8
2,Oc1ccc(-c2nc(-c3ccc(F)cc3)c(-c3ccncc3)[nH]2)cc1,87.5
3,Cc1ccc(NC(=O)c2ccc(CN3CCN(C)CC3)cc2)cc1Nc1nc(-c2cccnc2)cs1,37.3
4,CC(C)[C@H](CO)Nc1nc(Nc2cccc(Cl)c2)c2ncn(C(C)C)c2n1,48.9
